Experimental findings from patent US7317038B2, “Nerve regeneration promoters containing semaphorin inhibitor as the active ingredient” (Dainippon Sumitomo Pharma Co., Ltd., priority 2000, dated 2008) are described below.

SMILES strings stand for the structures. “Also recorded” adds a separate entry of the source.

One data set addresses T1, Sema3A (Mus musculus, UniProt O08665).
T1 construct: expressed in transfected cells; host or cells: COS7
T1 sequence (O08665 21-772): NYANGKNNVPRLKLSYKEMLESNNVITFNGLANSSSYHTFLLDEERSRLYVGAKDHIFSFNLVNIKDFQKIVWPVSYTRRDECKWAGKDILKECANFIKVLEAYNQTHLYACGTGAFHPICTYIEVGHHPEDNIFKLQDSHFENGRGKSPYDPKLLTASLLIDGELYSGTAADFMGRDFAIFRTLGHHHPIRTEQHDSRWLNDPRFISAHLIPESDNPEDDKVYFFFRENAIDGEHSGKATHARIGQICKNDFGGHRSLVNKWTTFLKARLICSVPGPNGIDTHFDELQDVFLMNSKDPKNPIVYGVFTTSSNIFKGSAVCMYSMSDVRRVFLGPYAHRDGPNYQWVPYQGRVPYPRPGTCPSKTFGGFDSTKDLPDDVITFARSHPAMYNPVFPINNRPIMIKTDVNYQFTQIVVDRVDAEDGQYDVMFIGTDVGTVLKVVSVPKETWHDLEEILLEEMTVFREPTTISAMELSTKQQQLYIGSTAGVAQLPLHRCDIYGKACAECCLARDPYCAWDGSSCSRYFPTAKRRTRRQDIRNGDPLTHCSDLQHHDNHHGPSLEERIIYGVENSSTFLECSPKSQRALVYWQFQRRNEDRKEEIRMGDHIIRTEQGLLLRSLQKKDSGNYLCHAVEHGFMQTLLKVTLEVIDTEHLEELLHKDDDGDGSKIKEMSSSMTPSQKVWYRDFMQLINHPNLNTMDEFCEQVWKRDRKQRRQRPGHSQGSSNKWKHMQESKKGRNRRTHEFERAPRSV
Briefly: Collagen gel co-culture: suppression of neurite outgrowth inhibitory action of Sema3A. More on the design: key to suppression of neurite outgrowth inhibitory activity of Sema3A, score / inhibition of neurite outgrowth-inhibitory action of Sema3A, score: neurites outgrew in a complete concentric circular shape just like for the control groups where Sema3A-non-expressing COS7 cells were used, it was scored +++ (a strong inhibitory effect for Sema3A); outgrowth was found almost in a concentric circular shape accompanied with a little suppression of the outgrowth toward the direction of Sema3A-expressing COS cells, it was scored ++; outgrowth toward the direction of Sema3A-expressing COS cells is fairly suppressed to present a crescent shape, it was scored +; outgrowth toward the direction of Sema3A-expressing COS cells was not found at all (no inhibitory effect for Sema3A), it was scored −. It counts as cell-based. As to conditions: for suppression of neurite outgrowth inhibitory activity of Sema3A, score: Example 5. The procedure: Whether the object compounds (SPF-3059-1, M162, A721) have persistent inhibitory action to Sema3A was analyzed by the collagen gel co-culture method (Neuroprotocols 4, 116, 1994) using Sema3A-expressing COS7 cell clumps and 7- or 8-day-old chick embryo dorsal root ganglions. The Sema3A-expressing COS7 cell clumps were generated as follows. 1 μg of Sema3A-expression plasmid was introduced into COS7 cells (100000 cells/35 mm culture plate), which were cultured overnight, with the FuGENE6 transfection reagent (Roche). 2.5 hours after the starting of the transfection, the COS7 cells were collected by trypsinization and centrifugation, and re-suspended in a medium of 200 μl. 20 μl of the cell suspension was placed on the lid of the culture plate (inside) and the lid was turned over, and then the suspension was cultivated for 20 hours (hanging drop culture) (Cell 78, 425, 1994). When the culture was over, aggregated COS7 cells (clump) were collected and trimmed to a diameter of 0.5 mm. The Sema3A-expressing COS7 cell clump and the above-mentioned dorsal root ganglions were placed in parallel at a distance of 0.5 to 1 mm in a 0.2% collagen gel which was then cultivated in a medium containing the aforementioned compounds at various concentrations for 2 days at 37° C. under 5% CO2. Glutaraldehyde was quickly added therein to make the final concentration 1%. The cultures were then left for 1 hour at room temperature so that the tissues were fixed, and the neurite outgrowth was microscopically observed. The results are found in FIG. 4.
When a medium not containing a subject compound was used, neurites were unable to grow towards the COS7 cell clump with the high concentration of Sema3A and grew only to the opposite direction.
In a similar way as in Example 4, suppression of the neurite outgrowth inhibitory activity was analyzed for the compounds, SPF-3059-1, SPF-3059-2 and SPF-3059-5. When the neurites outgrew in a complete concentric circular shape just like for the control groups where Sema3A-non-expressing COS7 cells were used, it was scored +++ (a strong inhibitory effect for Sema3A). When the outgrowth was found almost in a concentric circular shape accompanied with a little suppression of the outgrowth toward the direction of Sema3A-expressing COS cells, it was scored ++. […] When the outgrowth toward the direction of Sema3A-expressing COS cells was not found at all (no inhibitory effect for Sema3A), it was scored −.

In another data set the test system is COS7 cells. Briefly: Effect on cell proliferation (MTT). As to conditions: Chlorocebus aethiops, COS-7, 48 h, two days, read-out: IC50, inhibitory rate for cell proliferation. The data set is classed as cell-based. The procedure: COS7 cells were seeded onto a 96-well plate (medium 100 μl/well) at 10000 cells per well. At the same time, SPF-3059-1 of various concentrations was added and the cells were cultivated for two days in the presence of 5% CO2 at 37° C. Each well was then added with 10 μl of MTT solution at 5 mg/ml and cultured for another one hour. Subsequently, the culture supernatant was removed and formazan (an MTT derivative produced in viable cells) accumulated in the cells was dissolved by the addition of 50 μl DMSO and then the absorbance at 570 nm was measured to determine the proliferation of COS7 cells. […] The longitudinal and lateral axes in the figure show cell proliferation and the SPF-3059-1 concentration, respectively. Besides, the standard deviation (n=4) was added to each column.
The same effect on cell proliferation as in Example 9 was examined for the compounds, SPF-3059-1, SPF-3059-2 and SPF-3059-5. The wells with these compounds were served as samples, the wells with PBS were served as control, and the wells for which the experiment was carried out without adding the cells was served as blank. IC50 (μg/ml), the inhibitory rate for cell proliferation, was determined, which is calculated by the equation shown below. The inhibitory rate for cell proliferation (%)=(1−(absorbance of a sample well−absorbance of the blank well)/(absorbance of the control well−absorbance of the blank well))×100

In data set [1] the target is T2, mouse semaphorin 3A (Sema3A) (Mus musculus, UniProt O08665).
T2 sequence (O08665 21-772): T1 sequence (O08665 21-772)
Description: Suppression of growth cone collapse activity of Sema3A (chick embryo dorsal root ganglions). The data set is classed as cell-based. Particulars: for IC50: E7 chick embryo dorsal root ganglions, 2 units/ml Sema3A added 1 hour after compound, concentration where collapse rate = (A+B)/2, read-out: IC50 of inhibition of the growth cone collapse activity of Sema3A (converted). As for the experimental part: A 96-well plate (Sumitomo Bakelite Co., ltd. ) pre-coated with polylysine was further coated with laminine (20 μg/ml of laminine, for 1 hour at room temperature). Each well was added with 100 μl of medium (F12 medium containing 10% bovine fetal serum, 20 ng/ml of NGF, 100 units/ml of penicillin and 100 μg/ml of streptomycin) which media were then inoculated with dorsal root nerve ganglions excised from E7 (Embryonic day 7) chick embryo and were cultured for 16 to 20 hours under 5% CO2 and at 37° C. Subsequently, the object compounds were added to media at various concentrations and 2 units/ml of mouse semaphorin 3A (Sema3A) was added after cultivating for 1 hour. The cultures were further incubated for another 1 hour. Glutaraldehyde was quickly added therein after said 1 hour to make the final concentration 1%. The cultures were then left for 15 minutes at room temperature so that the tissue sections were fixed, and collapse rates of the growth cones were microscopically observed. A well with no addition of Sema3A was made the control.
The longitudinal and lateral axes in the figures represent the collapse rate of growth cones and the concentration of compounds, respectively. ●▪▴ show the results when Sema3A was added after the addition of the compounds and ◯[…]Δ show those when Sema3A was not added. Further, IC50 (μg/ml) of the inhibitors were determined by the method comprising: calculating the collapse rate of growth cone (A) % of the negative controls (neither compounds nor Sema3a was added); subsequently calculate the collapse rate of growth cone (B) % of the positive controls (compounds were not added but Sema3a was added); and the concentration was chosen for each compound from the chart where the collapse rate of growth cone met (A+B)/2(%), which was made IC50 level. The followings are the results.

A short description of the next data set: Solubility. The data set is classed as physicochemical.

Take `CC(=O)c1cc2c(=O)c3cc(O)c(O)cc3oc2c(C(C)=O)c1-c1coc2cc(O)c(O)c(C(=O)O)c2c1=O` [SPF-3059-2]: the “suppression of neurite outgrowth inhibitory activity of Sema3A, score” value is “+” at Sema3A (0.5 μg/ml compound), “++” on Sema3A (1.0 μg/ml compound) and “+++” at Sema3A (2.0 μg/ml compound). Further, the “inhibition of neurite outgrowth-inhibitory action of Sema3A, score” value on Sema3A (2 μg/ml compound, Example 16) is recorded as “+++”. In addition, on Sema3A (collagen gel co-culture, 2 days), the “persistent inhibitory action to Sema3A (neurite outgrowth toward Sema3A-expressing COS7 cell clump)” value is on record as “persistently inhibited the action of Sema3A”. The IC50 with COS7 cells was > 100 µg/mL. In addition, the “inhibition of growth cone collapse activity of Sema3A (in words)” value in data set [1] (chick embryo dorsal root ganglions) was “inhibit the growth cone collapse activities of Sema3A in a concentration-dependent manner; also recorded: potently inhibit semaphorin”.
`CC(=O)c1c(C)c(C(=O)C2COc3cc(O)c(O)cc3C2=O)cc2c(=O)c3c(C(=O)O)c(O)c(O)cc3oc12` (centres unmarked) [SPF-3059-9]: the IC50 is > 100 µg/mL in the data set on COS7 cells and 187 nM in data set [1]. For the same compound, the Solubility entry in the data set “Solubility” (methanol, DMSO) is “Soluble”; in the data set “Solubility” (water, hexane), “Insoluble”.
For `CC(=O)c1cc2c(=O)c3c(C(=O)O)c(O)c(O)cc3oc2c(C(C)=O)c1-c1coc2cc(O)c(O)cc2c1=O` [SPF-3059-24], the results for the IC50 (in the data set on COS7 cells; in data set [1]) were > 100 µg/mL and 188 nM, respectively. Besides, the Solubility entry in the data set “Solubility” (methanol, DMSO) was “Soluble”; in “Solubility” (water, hexane) it was “Insoluble”.
In the case of `CC(=O)c1cc2c(=O)c3c(C(=O)O)cc(O)cc3oc2c(C(C)=O)c1-c1coc2cc(O)c(O)cc2c1=O` [SPF-3059-25], the IC50 in data set [1] was 7750 nM. For the same compound, the Solubility result is listed as “Soluble” in “Solubility” (methanol, DMSO) and “Insoluble” in the data set “Solubility” (water, hexane).
In the case of `CC(=O)c1cc2c(=O)c3cc(O)c(O)cc3oc2c(C(C)=O)c1-c1coc2cc(O)c(O)cc2c1=O` [SPF-3059-26], the IC50 in data set [1] is 409 nM. Further, the Solubility result in the data set “Solubility” (methanol, DMSO) was “Soluble”; in the data set “Solubility” (water, hexane) it was “Insoluble”.
The matching figures for `CC(=O)c1cc(-c2c(C(C)=O)cc3c(=O)c4c(C(=O)O)c(O)c(O)cc4oc3c2C(C)=O)cc(C(=O)c2cc(O)c(O)cc2O)c1O` [SPF-3059-27]: 778 nM, “Soluble” and “Insoluble”.
Regarding `CC(=O)c1c(C)c(-c2cc(=O)c3c(C(=O)O)cc(O)cc3o2)cc2c(=O)c3c(C(=O)O)c(O)c(O)cc3oc12` [SPF-3059-28], the IC50 in data set [1] is 3760 nM. The Solubility entry in “Solubility” (methanol, DMSO) is listed as “Soluble”; in “Solubility” (water, hexane), “Insoluble”.
As to `COCc1c(-c2cc3c(=O)c4cc(O)c(O)cc4oc3c(C(C)=O)c2C)oc2cc(O)c(O)c(C(=O)O)c2c1=O` [SPF-3059-29], the IC50 was > 100 µg/mL in the data set with COS7 cells and 182 nM in data set [1]. The Solubility entry in the data set “Solubility” (methanol, DMSO) was “Soluble”; in the data set “Solubility” (water, hexane) it was “Insoluble”.
`CC(=O)c1c(C)c(C(=O)C2COc3cc(O)c(O)cc3C2=O)cc2c(=O)c3cc(O)c(O)cc3oc12` (centres unmarked) [SPF-3059-30]: the IC50 is > 100 µg/mL in the data set on COS7 cells and 408 nM in data set [1]. For the same compound, the Solubility entry in “Solubility” (methanol, DMSO) is recorded as “Soluble”; in the data set “Solubility” (water, hexane), “Insoluble”.
For the compound `CC(=O)c1c(C)c(C(=O)C2(O)COc3cc(O)c(O)cc3C2=O)cc2c(=O)c3c(C(=O)O)c(O)c(O)cc3oc12` (centres unmarked) [SPF-3059-34], in data set [1], the IC50 was 182 nM. In addition, the Solubility entry in the data set “Solubility” (methanol, DMSO) is listed as “Soluble”; in the data set “Solubility” (water, hexane), “Insoluble”.
For the compound `COC(=O)c1cc(O)cc2oc(-c3cc4c(=O)c5c(C(=O)O)c(O)c(O)cc5oc4c(C(C)=O)c3C)cc(=O)c12` [SPF-3059-35], in data set [1], the IC50 is 3660 nM. Also, the Solubility result is given as “Soluble” in the data set “Solubility” (methanol, DMSO) and “Insoluble” in “Solubility” (water, hexane).
In the case of `CC(=O)c1cc(-c2c(C(C)=O)cc3c(=O)c4cc(O)c(O)cc4oc3c2C(C)=O)cc(C(=O)c2cc(O)c(O)cc2O)c1O` [SPF-3059-36], the IC50 in data set [1] was 6680 nM. Further, the Solubility entry in the data set “Solubility” (methanol, DMSO) is “Soluble”; in the data set “Solubility” (water, hexane), “Insoluble”.
Take `CC(=O)c1c(C)c(-c2oc3cc(O)c(O)c(C(=O)O)c3c(=O)c2Cc2c(C)oc3c(c2=O)COc2cc(O)c(O)cc2-3)cc2c(=O)c3c(C(=O)O)c(O)c(O)cc3oc12` [SPF-3059-37]: the IC50 in data set [1] was < 124 nM. The Solubility entry is recorded as “Soluble” in the data set “Solubility” (methanol, DMSO) and “Insoluble” in “Solubility” (water, hexane).
For the compound `CC(=O)c1c(C)c(-c2cc(=O)c3c(C(=O)O)c(O)c(O)cc3o2)cc2c(=O)c3c(C(=O)O)c(O)c(O)cc3oc12` [SPF-3059-39], the IC50 in data set [1] is 182 nM. Moreover, the Solubility entry is on record as “Soluble” in “Solubility” (methanol, DMSO) and “Insoluble” in “Solubility” (water, hexane).
